Reference: PubChem BioAssay (NCI)
Several values for one entry are separate records, joined by “and”; a condition that tells them apart may be missing. Equal entries are not always repeated.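 Grown in 96-well plates, cells were treated for 48 hours with each compound at five concentrations. Insufficient inhibition: endpoint recorded as highest concentration tested. At the GI50, growth is halved. TGI marks complete inhibition of growth.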

Legend:
Test in all cases: DTP human tumour cell line panel, 48 h
[1] = test system: HOP-62 NSCLC
[2] = test system: MALME-3M melanoma
[3] = test system: HL-60(TB) leukemia
[4] = test system: UACC-257 melanoma
[5] = test system: A498 renal
[6] = test system: SF-268 CNS
[7] = test system: T-47D breast
[8] = test system: LOX IMVI melanoma
[9] = test system: M14 melanoma
[10] = test system: BT-549 breast

Compound	GI50 [1] [µM]	TGI [1] [µM]	GI50 [2] [µM]	TGI [2]	GI50 [3] [µM]	TGI [3] [µM]	GI50 [4] [µM]	TGI [4]	GI50 [5] [µM]	TGI [5] [µM]	GI50 [6] [µM]	TGI [6] [µM]	GI50 [7] [µM]	TGI [7] [µM]	GI50 [8] [µM]	TGI [8] [µM]	GI50 [9] [µM]	TGI [9]	GI50 [10] [µM]	TGI [10] [µM]
O=c1oc2ccc(Cl)cc2c(=O)n1-c1ccc(F)cc1F	1.49	4.84	1.11	5.38 µM	1.88	4.93	0.45	4.08 µM	0.372	1.68	2.21	15.8	1.08	5.27	2.4	12.1	0.558	5.03 µM	1.09	5.89
CC1OC(CC(=O)O)Cc2c1c(O)c1c(O)cc(-c3cc(=O)c4c(=O)c5c(c(=O)c=4c3=O)CC(CC(=O)O)OC5C)c(O)c1c2O (stereo not given)	71	> 100	14.2	29.2 µM and 38.5 µM		> 49.1	21.8	26.9 µM and 66.9 µM		58.9	47.8	> 100	30			36.5	24.4	32 µM and 75.9 µM	52.7	
CCc1cccc(NC(=O)Nc2ccc(Oc3ccc4nc(NC(=O)OC)[nH]c4c3)cc2)c1	3.1	11	2.14	11.1 µM	2.79	> 16.4	3.58	> 22.3 µM	3.2	17.8	4.33	15.9	3.56	> 15.6	3.77	> 17.3	3.13	12.6 µM	8.24	24.4
Cc1ccc2[nH]c(O)c(N=Nc3ccccc3[N+](=O)[O-])c2c1		10.7		7.9 µM		> 100		> 100 µM		34.6		> 29.4		14		> 100		> 100 µM		> 94.3
CCCCc1n(Cc2ccc3ccccc3n2)cc[n+]1Cc1ccc2ccccc2n1	2.72	11.1	0.946	7.03 µM	0.295	1.11	0.543	4.32 µM	3.01	12.9	2.18	14.3	0.375	6.01	1.52	4.67	1.71	10.2 µM	0.97	5.86
COc1cc(NS(C)(=O)=O)ccc1Cc1c2ccccc2nc2ccccc12	0.059	0.368	0.192	1.65 µM	0.0258	0.141	0.493	2.67 µM	0.135	1.15	0.179	6.03	0.0535	1.37	0.0793	1.48	0.158	1.43 µM	0.267	1.97
CCN1C(=O)N(CC)C2C1NN=c1s/c(=C\c3ccc(C(F)(F)F)cc3)c(=O)n12 (stereo not given)	0.508	29.8	1.3	> 47.2 µM	0.245	0.609	7.49	35.4 µM	0.164	0.719	1.03	> 41	0.36	71.3	0.483	> 34.6	0.311	> 36.1 µM	0.783	> 20.8
Cc1ccc(-c2nc(/C=N/Nc3cc(C)nc4ccc(Br)cc34)c(C)o2)cc1	1.87	3.55	2.05	3.62 µM	1.9	4.05	2.13	5.02 µM	3.73	20.4	2.09	4.22	1.94	3.94	1.88	3.57	1.89	3.63 µM	14	29.3
CCOC(=O)c1c2c(n3ccc(NC(=O)CCN4CCCCC4)cc13)C(=O)c1ncccc1C2=O	0.0229	1.83	1.16	2.73 µM	1.46	3.46	2.45	7.99 µM	0.806	29	0.0503	2.25	8	30.2	0.301	0.777	0.17	1.76 µM	4.1	21.4
FC(F)(F)c1nc(SCc2ccc(Cl)cc2)n[nH]1		> 100		> 100 µM		> 100		> 100 µM		> 100		> 100		> 100		> 100		> 100 µM		> 100
CCc1[nH]nc(C(N)=O)c1N=NN(C)C		> 100		> 100 µM		> 100		> 100 µM		> 100		> 100		> 100		> 100		> 100 µM		> 100
O=C(Nc1ccccc1Cl)c1ccc(NC2=C(Cl)C(=O)N(C3CCCCC3)C2=O)cc1	8.37	29.3	20.5	51.2 µM	3.38	8.48	5.29	15 µM	40.6	157	20.2	52.9	6.41	34.8	1.68	20.9	11.7	42.1 µM	20.7	47.1
CC1=C2[C@@H](CC1)[C@]1(C)O[C@@](C(C)C)(C[C@H]1OC(=O)CO)[C@H]2OC(=O)CCCc1ccccc1	13.4	26.8	6.52	19.8 µM	2.21	5.27	13.1	27.2 µM	6.4	19.6	11.5	32.6	2.54	12.3	5.88	18.5	7.78	21.8 µM	4.44	15.7
